Measured values reported in patent US10449258B2, “Antibody drug conjugate, intermediate, preparation method, pharmaceutical composition and uses thereof” (XDCEXPLORER (SHANGHAI) CO., LTD., priority 2015, dated 2019).
Like-named read-outs stand apart in the source and are kept apart here.

Key:
[1] = tested on: Her2 low expression human MCF-7 breast tumor cells; assay: Cytotoxicity assay (growth inhibition, CellTiter-Glo) on MCF-7
Procedure: (§1) Her2-positive human BT474 breast tumor cells (BT474 for short), Her2 low expression human MCF-7 breast tumor cells (MCF-7 for short), and human breast tumor cell strain MCF7-Her2 with stable-transfected Her2 outside MCF-7 (MCF-7-Her2 for short) were used (they were prepared by the methods disclosed in the literatures for preparing recombinant cells: Teemu T. Junttila, et al., Breast. Cancer Res. Treat., 2011, 128, 347 and Jeffrey J. Wallin et al., Clin. Cancer Res., 2012, 18, 3901, the contents of which are incorporated herein by reference in their entireties). The growth inhibition of tumor cells by T-CE-040 and T-CE-063 antibody drug conjugates were evaluated. BT474, MCF7-Her2 and MCF-7 were digested with 0.25% (v/v) trypsin and the cells were stripped and then suspended in 100 μL complete medium. 2,000 cells were inoculated in a 96-well plate and cultured, grew adherently overnight at 37° C., then 100 μL T-CE-040 and T-CE-063 antibody drug conjugates with different concentration gradients and the complete medium were added. After 120 hours, relative cell proliferation analysis was performed by adding 50 μL CellTiter-Glo® […] Cell Activation Reagent (CellTiter-GloB Luminescent, Promega).

[2] = tested on: Her2-positive human BT474 breast tumor cells; assay: Cytotoxicity assay (growth inhibition, CellTiter-Glo) on BT474
Procedure: as §1

[3] = tested on: human breast tumor cell strain MCF7-Her2 with stable-transfected Her2; assay: Cytotoxicity assay (growth inhibition, CellTiter-Glo) on MCF7-Her2
Procedure: as §1

[4] = Homo sapiens, MCF7, 120 h, read-out: Cytotoxicity assay IC50 MCF7, MCF-7 cells, 120 hours, CellTiter-Glo
[5] = Homo sapiens, BT-474, 120 h, read-out: Cytotoxicity assay IC50 BT474, BT474 cells, 120 hours, CellTiter-Glo
[6] = Homo sapiens, 120 h, read-out: Cytotoxicity assay IC50 MCF-Her2, MCF7-Her2 cells, 120 hours, CellTiter-Glo
[7] = read-out: Cytotoxicity assay IC50 BT474, BT474 cells, 120 hours, CellTiter-Glo
[8] = read-out: Cytotoxicity assay IC50 MCF7, MCF-7 cells, 120 hours, CellTiter-Glo
[9] = read-out: Cytotoxicity assay IC50 MCF-Her2, MCF7-Her2 cells, 120 hours, CellTiter-Glo

Row | SMILES | IC50 [1, 4] [nM] | IC50 [2, 5] [nM] | IC50 [3, 6] [nM] | IC50 [2, 7] [nM] | IC50 [1, 8] [nM] | IC50 [3, 9] [nM]
1 | COc1cc2cc(c1Cl)N(C)C(=O)C[C@H](OC(=O)[C@H](C)OCCOCCSSC)[C@]1(C)O[C@H]1[C@H](C)[C@@H]1C[C@@](O)(NC(=O)O1)[C@H](OC)/C=C/C=C(\C)C2 [CE-028] | 41 | 12 | 33 | – | – | –
2 | COCC(S)(CCC(=O)N(C)[C@H](C)C(=O)OC1CC(=O)N(C)c2cc(cc(OC)c2Cl)C/C(C)=C/C=C/[C@@H](OC)[C@@]2(O)C[C@H](OC(=O)N2)[C@@H](C)[C@@H]2O[C@@]12C)COC (stereo partly drawn) [CE-023] | 460 | 308 | 352 | – | – | –
3 | COc1cc2cc(c1Cl)N(C)C(=O)C[C@H](OC(=O)C1CCC(CSSC)OC1)[C@]1(C)O[C@H]1[C@H](C)C1C[C@@](O)(NC(=O)O1)[C@H](OC)/C=C/C=C(\C)C2 (stereo partly drawn) [CE-053-1] | 22 | 22 | 13 | – | – | –
4 | COc1cc2cc(c1Cl)N(C)C(=O)C[C@H](OC(=O)[C@H](C)N(C)C(=O)CCC(C)(C#N)SSC)[C@]1(C)O[C@H]1[C@H](C)[C@@H]1C[C@@](O)(NC(=O)O1)[C@H](OC)/C=C/C=C(\C)C2 (stereo partly drawn) [CE-019] | 150 | 64 | 57 | – | – | –
5 | COc1cc2cc(c1Cl)N(C)C(=O)C[C@H](OC(=O)[C@H](C)N(C)C(CCSSC)C(F)(F)F)[C@]1(C)O[C@H]1[C@H](C)[C@@H]1C[C@@](O)(NC(=O)O1)[C@H](OC)/C=C/C=C(\C)C2 (stereo partly drawn) [CE-011] | 2.4 | 1.2 | 1.5 | – | – | –
6 | COc1cc2cc(c1Cl)N(C)C(=O)C[C@H](OC(=O)[C@H]1CC[C@H](CSSC)CC1)[C@]1(C)O[C@H]1[C@H](C)[C@@H]1C[C@@](O)(NC(=O)O1)[C@H](OC)/C=C/C=C(\C)C2 [CE-031] | 15 | 7.5 | 9.2 | – | – | –
7 | COc1cc2cc(c1Cl)N(C)C(=O)C[C@H](OC(=O)[C@H](C)N(C)[C@H](CCSSC)C(F)(F)F)[C@]1(C)O[C@H]1[C@H](C)[C@@H]1C[C@@](O)(NC(=O)O1)[C@H](OC)/C=C/C=C(\C)C2 (single isomer, unassigned) [CE-030] | 6.2 | 2.4 | 3.2 | – | – | –
8 | COc1cc2cc(c1Cl)N(C)C(=O)C[C@H](OC(=O)C(COCCSSC)OC)[C@]1(C)O[C@H]1[C@H](C)C1C[C@@](O)(NC(=O)O1)[C@H](OC)/C=C/C=C(\C)C2 (stereo partly drawn) [CE-056] | 17 | 39 | 217 | – | – | –
9 | COc1cc2cc(c1Cl)N(C)C(=O)C[C@H](OC(=O)C(C)(C)OCCCSC1CC(=O)N(C[C@H]3CC[C@H](C(=O)ON4C(=O)CCC4=O)CC3)C1=O)[C@]1(C)O[C@H]1[C@H](C)C1C[C@@](O)(NC(=O)O1)[C@H](OC)/C=C/C=C(\C)C2 (stereo partly drawn) [CE-049] | 207 | 138 | 139 | – | – | –
10 | COc1cc2cc(c1Cl)N(C)C(=O)CC(OC(=O)[C@@H](C)N(C)C(=O)CCC(C)(C#N)SSC)[C@]1(C)O[C@H]1[C@H](C)[C@@H]1C[C@@](O)(NC(=O)O1)[C@H](OC)/C=C/C=C(\C)C2 (stereo partly drawn) [CE-018] | 1570 | 41.7 | 399 | – | – | –
11 | COc1cc2cc(c1Cl)N(C)C(=O)C[C@H](OC(=O)[C@H](C)OCCOCCOCC(=O)ON1C(=O)CCC1=O)[C@]1(C)O[C@H]1[C@H](C)C1C[C@@](O)(NC(=O)O1)[C@H](OC)/C=C/C=C(\C)C2 [CE-045] | 91.2 | 133 | 69.2 | – | – | –
12 | COc1cc2cc(c1Cl)N(C)C(=O)C[C@H](OC(=O)[C@H](C)OCCOCCOCCOCCOCCOCCN1C(=O)C=CC1=O)[C@]1(C)O[C@H]1[C@H](C)C1C[C@@](O)(NC(=O)O1)[C@H](OC)/C=C/C=C(\C)C2 [CE-046] | 462 | 375 | 232 | – | – | –
13 | COc1cc2cc(c1Cl)N(C)C(=O)C[C@H](OC(=O)COCCCSC1CC(=O)N(C[C@H]3CC[C@H](C(=O)ON4C(=O)CCC4=O)CC3)C1=O)[C@]1(C)O[C@H]1[C@H](C)C1C[C@@](O)(NC(=O)O1)[C@H](OC)/C=C/C=C(\C)C2 (stereo partly drawn) [CE-048] | 171 | 266 | 72.1 | – | – | –
14 | COc1cc2cc(c1Cl)N(C)C(=O)C[C@H](OC(=O)[C@H](C)N(C)[C@@H](CCSSC)C(F)(F)F)[C@]1(C)O[C@H]1[C@H](C)[C@@H]1C[C@@](O)(NC(=O)O1)[C@H](OC)/C=C/C=C(\C)C2 (single isomer, unassigned) [CE-029] | 2 | 0.85 | 1.7 | – | – | –
15 | COCC(C)(CCC(=O)N(C)[C@@H](C)C(=O)O[C@H]1CC(=O)N(C)c2cc(cc(OC)c2Cl)C/C(C)=C/C=C/[C@@H](OC)[C@@]2(O)C[C@H](OC(=O)N2)[C@@H](C)[C@@H]2O[C@@]12C)SSC (stereo partly drawn) [CE-013] | 4.3 | – | 5.9 | 21 | – | –
16 | COc1cc2cc(c1Cl)N(C)C(=O)CC(OC(=O)[C@@H](C)N(C)C(=O)CCC(SSC)C(C)C)[C@]1(C)O[C@H]1[C@H](C)[C@@H]1C[C@@](O)(NC(=O)O1)[C@H](OC)/C=C/C=C(\C)C2 (stereo partly drawn) [CE-021] | 98.6 | 63.9 | 92.9 | – | – | –
17 | COc1cc2cc(c1Cl)N(C)C(=O)C[C@H](OC(=O)[C@H](C)OCCCSC1CC(=O)N(C[C@H]3CC[C@H](C(=O)ON4C(=O)CCC4=O)CC3)C1=O)[C@]1(C)O[C@H]1[C@H](C)C1C[C@@](O)(NC(=O)O1)[C@H](OC)/C=C/C=C(\C)C2 (stereo partly drawn) [CE-051] | – | – | – | 112 | 119 | 51.4
18 | COc1cc2cc(c1Cl)N(C)C(=O)C[C@H](OC(=O)[C@H](C)OCCCSC1CC(=O)N(C[C@H]3CC[C@H](C(=O)ON4C(=O)CCC4=O)CC3)C1=O)[C@]1(C)O[C@H]1[C@H](C)C1C[C@@](O)(NC(=O)O1)[C@H](OC)/C=C/C=C(\C)C2 (stereo partly drawn) [CE-035] | – | – | – | 26.8 | 25.8 | 15.1
